# Patent US20020137929A1, “1 - (3-heterocyclylphenyl) isothiourea, -isourea, -guanidine and -amidine herbicidal agents” (Intellectual Property Department, BASF Aktiengesellschaft, priority 1998, published 2002)
# Assays:
# AMBEL (Ragweed, Common) = experiment: Postemergence herbicidal evaluation; type: in vivo, Ambrosia artemisifolia; details: postemergence
# Method in brief: (§1)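 Visual 0–9 rating versus control (stand, vigor, malformation, size, chlorosis, overall appearance), taken four to five weeks post-spray. Two-week-old seedlings received roughly 0.0156–0.500 kg/ha active in acetone/water (50/50) with 0.5% TWEEN 20 via nozzle at 40 psi.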
# CASOB (Sicklepod) = experiment: Postemergence herbicidal evaluation; type: in vivo, Cassia obtusifolia; details: postemergence
# Method in brief: as §1
# GALAP (Galium) [1] = experiment: Postemergence herbicidal evaluation; type: in vivo, Galium aparine; details: postemergence
# Method in brief: as §1
# [2] = test system: GLXMAW (Soybean, Williams); experiment: Postemergence herbicidal evaluation; type: in vivo, Glycine max, (L.) Merr. cv Williams; details: postemergence
# Method in brief: as §1
# [3] = test system: TRZAWR (Wheat, Winter, cv Riband); experiment: Postemergence herbicidal evaluation; type: in vivo, Triticum aestivum; details: postemergence
# Method in brief: as §1
# GALAP (Galium) [4] = experiment: Preemergence herbicidal evaluation; type: in vivo, Galium aparine; details: preemergence, rated 4-5 weeks after treatment, 0-9 scale
# Method in brief: (§2)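 Preemergence soil application of compound, sprayed in aqueous acetone at rates equivalent to about 0.0156 to 0.500 kg per hectare onto freshly sown cups. Plant response was judged by eye on a 0-9 scale four to five weeks later.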
# SETVI (Foxtail, Green) = experiment: Preemergence herbicidal evaluation; type: in vivo, Setaria viridis; details: preemergence, rated 4-5 weeks after treatment, 0-9 scale
# Method in brief: as §2
# ORYSAT (Rice, Tebonnet) = experiment: Preemergence herbicidal evaluation; type: in vivo, Oryza sativa, (L.) Tebonnet; details: preemergence, rated 4-5 weeks after treatment, 0-9 scale
# Method in brief: as §2
# [5] = test system: ECHORC (Watergrass (Calif.)); experiment: Preemergence weed control under flooded paddy conditions; type: in vivo, Echinochloa oryzoides; details: rated 3-4 weeks after treatment
# Method in brief: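 Flooded-pot preemergence screen with silt loam and seeds in the upper 0.5 cm. Dose about 0.0313 to 0.500 kg/ha, delivered into flood water; visual 0-9 score after 3 to 4 weeks.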
# CYPSE (Flatsedge) = experiment: as above; type: in vivo, Cyperus serotinus; details: rated 3-4 weeks after treatment
# Method in brief: (§3)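 First, seeds or propagules go into the top 0.5 cm of silt loam; next, water is held 1.5 to 3 cm over the soil; then compound (50/50 acetone/water) is pipetted into it at about 0.0313 to 0.500 kg/ha; finally plants are rated visually 0-9 after three to four weeks.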
# MOOVA (Monochoria) = experiment: as above; type: in vivo, Monochoria vaginalis; details: rated 3-4 weeks after treatment
# Method in brief: as §3
# [6] = test system: SAGPY (Arrowhead (Pygmaea)); experiment: as above; type: in vivo, Sagittaria pygmaea; details: rated 3-4 weeks after treatment
# Method in brief: as §3
# [7] = test system: ECHORC (Watergrass (Calif.)); experiment: Postemergence weed control under flooded paddy conditions; type: in vivo, Echinochloa oryzoides; details: postemergence weeds, rated 3 to 4 weeks after treatment
# Method in brief: (§4)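 With weeds 3 to 5 cm tall and rice at the 1.5 to 2.5 leaf stage, containers were flooded and water held 1.5 to 3 cm above soil. Compounds in 50/50 v/v aqueous/acetone went into the flood water at about 0.0313 to 0.500 kg/ha a.i. Effects were visually rated 0–9 against controls after three to four weeks in the greenhouse.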
# [8] = test system: SAGPY (Arrowhead (Pygmaea)); experiment: as above; type: in vivo, Sagittaria pygmaea; details: postemergence weeds, rated 3 to 4 weeks after treatment
# Method in brief: as §4
smiles,measurement,setting,value
"CCOC(=O)CN1C(=O)C(CC(=O)NS(=O)(=O)c2ccccc2)SC1=Nc1cc(-n2c(=O)cc(C(F)(F)F)n(C)c2=O)c(F)cc1Cl (stereo not drawn) [Compound 100, Ethyl 2-{{2-chloro-5-[3,6-dihydro-3-methyl-2,6-dioxo-4-(trifluoromethyl)-1(2H)-pyrimidinyl]-4-fluorophenyl}imino}-4-oxo-5-{[(phenylsulfonyl)-carbamoyl]methyl]-3-thiazolidineacetate]",herbicidal rating AMBEL,"AMBEL (Ragweed, Common); rate 0.0156 kg/ha",9.0
same,herbicidal rating AMBEL,"AMBEL (Ragweed, Common); rate 0.0313 kg/ha",9.0
same,herbicidal rating AMBEL,"AMBEL (Ragweed, Common); rate 0.0625 kg/ha",9.0
same,herbicidal rating AMBEL,"AMBEL (Ragweed, Common); rate 0.1250 kg/ha",7.0
same,herbicidal rating CASOB,CASOB (Sicklepod); rate 0.0156 kg/ha,2.0
same,herbicidal rating CASOB,CASOB (Sicklepod); rate 0.0313 kg/ha,7.0
same,herbicidal rating CASOB,CASOB (Sicklepod); rate 0.0625 kg/ha,6.0
same,herbicidal rating CASOB,CASOB (Sicklepod); rate 0.1250 kg/ha,9.0
same,herbicidal rating GALAP,GALAP (Galium) [1]; rate 0.0156 kg/ha,1.0
same,herbicidal rating GALAP,GALAP (Galium) [1]; rate 0.0313 kg/ha,2.0
same,herbicidal rating GALAP,GALAP (Galium) [1]; rate 0.0625 kg/ha,3.0
same,herbicidal rating GALAP,GALAP (Galium) [1]; rate 0.1250 kg/ha,3.0
same,herbicidal rating GLXMAW,[2]; rate 0.0156 kg/ha,5.5
same,herbicidal rating GLXMAW,[2]; rate 0.0313 kg/ha,6.0
same,herbicidal rating GLXMAW,[2]; rate 0.0625 kg/ha,6.5
same,herbicidal rating GLXMAW,[2]; rate 0.1250 kg/ha,7.0
same,herbicidal rating TRZAWR,[3]; rate 0.0156 kg/ha,3.0
same,herbicidal rating TRZAWR,[3]; rate 0.0313 kg/ha,4.0
same,herbicidal rating TRZAWR,[3]; rate 0.0625 kg/ha,3.5
same,herbicidal rating TRZAWR,[3]; rate 0.1250 kg/ha,4.0
same,GALAP rating,GALAP (Galium) [4]; 0.0313 kg/ha,0.0
same,GALAP rating,GALAP (Galium) [4]; 0.0625 kg/ha,1.0
same,GALAP rating,GALAP (Galium) [4]; 0.2500 kg/ha,6.0
same,GALAP rating,GALAP (Galium) [4]; 0.5000 kg/ha,6.0
same,SETVI rating,"SETVI (Foxtail, Green); 0.0313 kg/ha",0.0
same,SETVI rating,"SETVI (Foxtail, Green); 0.0625 kg/ha",1.0
same,SETVI rating,"SETVI (Foxtail, Green); 0.1250 kg/ha",0.0
same,SETVI rating,"SETVI (Foxtail, Green); 0.2500 kg/ha",1.0
same,SETVI rating,"SETVI (Foxtail, Green); 0.5000 kg/ha",1.0
same,ORYSAT rating,"ORYSAT (Rice, Tebonnet); 0.0313 kg/ha",0.0
same,ORYSAT rating,"ORYSAT (Rice, Tebonnet); 0.0625 kg/ha",0.0
same,ORYSAT rating,"ORYSAT (Rice, Tebonnet); 0.1250 kg/ha",0.0
same,ORYSAT rating,"ORYSAT (Rice, Tebonnet); 0.2500 kg/ha",0.0
same,ORYSAT rating,"ORYSAT (Rice, Tebonnet); 0.5000 kg/ha",1.0
same,ECHORC herbicidal effect rating,[5]; 0.0313 kg/ha,0.0
same,ECHORC herbicidal effect rating,[5]; 0.0625 kg/ha,0.0
same,ECHORC herbicidal effect rating,[5]; 0.1250 kg/ha,0.0
same,ECHORC herbicidal effect rating,[5]; 0.2500 kg/ha,3.0
same,ECHORC herbicidal effect rating,[5]; 0.5000 kg/ha,4.0
same,CYPSE herbicidal effect rating,CYPSE (Flatsedge); 0.0313 kg/ha,0.0
same,CYPSE herbicidal effect rating,CYPSE (Flatsedge); 0.0625 kg/ha,0.0
same,CYPSE herbicidal effect rating,CYPSE (Flatsedge); 0.1250 kg/ha,0.0
same,CYPSE herbicidal effect rating,CYPSE (Flatsedge); 0.2500 kg/ha,0.0
same,MOOVA herbicidal effect rating,MOOVA (Monochoria); 0.0313 kg/ha,9.0
same,MOOVA herbicidal effect rating,MOOVA (Monochoria); 0.0625 kg/ha,9.0
same,MOOVA herbicidal effect rating,MOOVA (Monochoria); 0.1250 kg/ha,9.0
same,MOOVA herbicidal effect rating,MOOVA (Monochoria); 0.2500 kg/ha,9.0
same,MOOVA herbicidal effect rating,MOOVA (Monochoria); 0.5000 kg/ha,9.0
same,SAGPY herbicidal effect rating,[6]; 0.0313 kg/ha,0.0
same,SAGPY herbicidal effect rating,[6]; 0.0625 kg/ha,0.0
same,SAGPY herbicidal effect rating,[6]; 0.1250 kg/ha,0.0
same,SAGPY herbicidal effect rating,[6]; 0.2500 kg/ha,4.0
same,SAGPY herbicidal effect rating,[6]; 0.5000 kg/ha,6.0
same,Herbicidal rating ECHORC,[7]; Rate 0.0313 kg/ha,0.0
same,Herbicidal rating ECHORC,[7]; Rate 0.0625 kg/ha,0.0
same,Herbicidal rating ECHORC,[7]; Rate 0.1250 kg/ha,0.0
same,Herbicidal rating ECHORC,[7]; Rate 0.2500 kg/ha,3.0
same,Herbicidal rating ECHORC,[7]; Rate 0.5000 kg/ha,4.0
same,Herbicidal rating SAGPY,[8]; Rate 0.0313 kg/ha,0.0
same,Herbicidal rating SAGPY,[8]; Rate 0.0625 kg/ha,0.0
same,Herbicidal rating SAGPY,[8]; Rate 0.1250 kg/ha,0.0
same,Herbicidal rating SAGPY,[8]; Rate 0.2500 kg/ha,4.0
same,Herbicidal rating SAGPY,[8]; Rate 0.5000 kg/ha,6.0
